Experimental findings from ChEMBL document CHEMBL1240402 (2010) are described below.

Holding throughout (type): functional
In assay [1] the test system is Clostridium perfringens. Put plainly: Antimicrobial activity against Clostridium perfringens LFM1 assessed as susceptibility breakpoint by DIN-standardized microdilution method. On the technique in general: Dilution methods test growth across graded concentrations, often in twofold steps.
Assay [2] concerns Clostridium perfringens. As to the kind of experiment: Antimicrobial activity against Clostridium perfringens LFM1 assessed as susceptibility breakpoint by DANMAP method.
In assay [3] the test system is Clostridium perfringens. As to the kind of experiment: Antimicrobial activity against Clostridium perfringens LFM1 assessed as susceptibility breakpoint by EUCAST method.
Another assay deals with Escherichia coli. Put plainly: Antimicrobial activity against flo gene positive Escherichia coli.

Activity calls are given as the source filed them.

Take `CC[C@H]1OC(=O)[C@H](C)[C@@H](O[C@H]2C[C@@](C)(OC)[C@@H](O)[C@H](C)O2)[C@H](C)[C@@H](O[C@@H]2O[C@H](C)C[C@H](N(C)C)[C@H]2O)[C@](C)(O)C[C@@H](C)C(=O)[C@H](C)[C@@H](O)[C@]1(C)O`: the result in the assay with Clostridium perfringens [1] was inactive.
As to `CC(=O)NC[C@H]1CN(c2ccc(N3CCOCC3)c(F)c2)C(=O)O1` [LINEZOLID], the Activity result in the assay on Clostridium perfringens [1], in the assay on Clostridium perfringens [2] and in the assay on Clostridium perfringens [3] (record 2) was “<=2 mg/L” in each case. Besides, the result in the assay with Clostridium perfringens [3] was inactive. The MIC against Escherichia coli was > 64 µg/mL.
In the case of `CCC[C@@H]1C[C@@H](C(=O)N[C@@H]([C@H]2O[C@H](SC)[C@H](O)[C@@H](O)[C@H]2O)[C@H](C)Cl)N(C)C1`, the outcome in the assay on Clostridium perfringens [1] was inactive.
`CS(=O)(=O)c1ccc([C@@H](O)[C@@H](CF)NC(=O)C(Cl)Cl)cc1` [FLORFENICOL]: in the assay with Clostridium perfringens [2], the outcome was inactive. For the same compound, the minimum inhibitory concentration (MIC) in the assay with Escherichia coli is > 32 µg/mL.
Take `O=C(N[C@H](CO)[C@H](O)c1ccc([N+](=O)[O-])cc1)C(Cl)Cl`: in the assay with Clostridium perfringens [2], the outcome was inactive.

A word on the MIC: it is the smallest concentration in the dilution series that meets the test's criterion for growth inhibition. A lower MIC goes with inhibition by little substance.
